Measurements from PMC8831444 (Cancer Discovery, 2021).
Read-outs that look alike come from different tables or passages of the source.

How the values were obtained:
Type in all cases: cell-based
CDK4 [1] = molecular target: T1, CDK4 (Homo sapiens, UniProt P11802); experiment: palbociclib-based degrader
Target sequence in this assay (P11802 2-303): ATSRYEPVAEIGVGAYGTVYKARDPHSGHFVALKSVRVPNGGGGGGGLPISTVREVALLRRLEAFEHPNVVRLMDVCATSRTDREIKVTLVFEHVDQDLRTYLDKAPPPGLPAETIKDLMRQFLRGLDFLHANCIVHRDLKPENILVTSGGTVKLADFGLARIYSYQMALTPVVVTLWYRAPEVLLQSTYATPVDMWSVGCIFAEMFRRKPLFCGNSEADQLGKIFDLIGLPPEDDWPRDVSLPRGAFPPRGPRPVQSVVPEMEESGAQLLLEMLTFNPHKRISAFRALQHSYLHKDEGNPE

CDK6 [2] = molecular target: T2, CDK6 (Homo sapiens, UniProt Q00534); experiment: palbociclib-based degrader
Target sequence in this assay (Q00534 whole entry): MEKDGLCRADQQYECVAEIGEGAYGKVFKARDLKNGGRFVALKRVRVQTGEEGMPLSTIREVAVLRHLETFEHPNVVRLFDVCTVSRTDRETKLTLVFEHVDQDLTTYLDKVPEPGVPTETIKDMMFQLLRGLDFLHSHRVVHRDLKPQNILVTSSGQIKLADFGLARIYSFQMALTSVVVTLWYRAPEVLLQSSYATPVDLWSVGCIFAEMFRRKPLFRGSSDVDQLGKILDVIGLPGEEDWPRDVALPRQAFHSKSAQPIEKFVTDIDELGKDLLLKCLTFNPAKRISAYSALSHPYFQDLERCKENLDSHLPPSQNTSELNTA

CDK6 [3] = molecular target: T2, CDK6; experiment: palbociclib-based degrader; remark: listed apart in the source
Target sequence in this assay (P40337 whole entry): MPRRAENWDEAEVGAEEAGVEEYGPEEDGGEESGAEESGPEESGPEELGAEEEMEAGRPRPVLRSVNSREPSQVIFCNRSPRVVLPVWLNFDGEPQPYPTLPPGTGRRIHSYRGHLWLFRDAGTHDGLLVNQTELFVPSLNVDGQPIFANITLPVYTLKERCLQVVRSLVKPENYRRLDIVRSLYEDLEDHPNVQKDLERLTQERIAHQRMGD
Target sequence in this assay (Q00534 whole entry): as the sequence (Q00534 whole entry) above

CDK4 [4] = molecular target: T1, CDK4; experiment: palbociclib-based degrader; remark: listed apart in the source
Target sequence in this assay (P40337 whole entry): as the sequence (P40337 whole entry) above
Target sequence in this assay (P11802 2-303): as the sequence (P11802 2-303) above

CDK4 [5] = molecular target: T1, CDK4; experiment: IP-kinase assay
Target sequence in this assay (P11802 2-303): as above

In the case of CC(=O)c1c(C)c2cnc(Nc3ccc(N4CCN(CC5CCN(c6ccc7c(c6)C(=O)N(C6CCC(=O)NC6=O)C7=O)CC5)CC4)cn3)nc2n(C2CCCC2)c1=O (centres unmarked) [BSJ-03-096], the “palbociclib-based degrader; CDK4 degradation in MCF7 cells (immunoblot)” value (CDK4 [1]) was ~ 10 nmol/L and the “palbociclib-based degrader; CDK6 degradation in MCF7 cells (immunoblot)” value (CDK6 [2]) was ~ 10 nmol/L.

CC(=O)c1c(C)c2cnc(Nc3ccc(N4CCN(CCCCC(=O)N[C@H](C(=O)N5C[C@H](O)C[C@H]5C(=O)N[C@@H](C)c5ccc(-c6scnc6C)cc5)C(C)(C)C)CC4)cn3)nc2n(C2CCCC2)c1=O [BSJ-05-017] was tested, and the “palbociclib-based degrader; CDK6 degradation in MCF7 cells (immunoblot)” value (CDK6 [3]) was ~ 10 nmol/L and the “palbociclib-based degrader; CDK4 degradation in MCF7 cells (immunoblot)” value (CDK4 [4]) was ~ 10 nmol/L.

For CCN1CCN(Cc2ccc(Nc3ncc(F)c(-c4cc(F)c5nc(C)n(C(C)C)c5c4)n3)nc2)CC1 [abemaciclib], the “% reduced” value (CDK4 [5]) was 84 % reduced.
